Laboratory results published in patent publication US12479847B2 (DANA-FARBER CANCER INSTITUTE, INC., priority 2019, dated 2025).
Substitutions are numbered along the chain they refer to.

What was measured:
Assay in all cases: KINOMEscan (ScanMAX) kinase profiling
Format in all cases: binding
[1] = target: T1, panel of 468 kinases (Homo sapiens, UniProt P07949); conditions: RET; 1 μM; read-out: % control
T1 construct: purchased KINOMEscan (ScanMAX) service

[2] = target: T2, panel of 468 kinases (Homo sapiens, UniProt P36888, K663Q); conditions: FLT3(K663Q); 1 μM; read-out: % control
T2 construct: purchased KINOMEscan (ScanMAX) service
T2 sequence (P36888 27-993 K663Q): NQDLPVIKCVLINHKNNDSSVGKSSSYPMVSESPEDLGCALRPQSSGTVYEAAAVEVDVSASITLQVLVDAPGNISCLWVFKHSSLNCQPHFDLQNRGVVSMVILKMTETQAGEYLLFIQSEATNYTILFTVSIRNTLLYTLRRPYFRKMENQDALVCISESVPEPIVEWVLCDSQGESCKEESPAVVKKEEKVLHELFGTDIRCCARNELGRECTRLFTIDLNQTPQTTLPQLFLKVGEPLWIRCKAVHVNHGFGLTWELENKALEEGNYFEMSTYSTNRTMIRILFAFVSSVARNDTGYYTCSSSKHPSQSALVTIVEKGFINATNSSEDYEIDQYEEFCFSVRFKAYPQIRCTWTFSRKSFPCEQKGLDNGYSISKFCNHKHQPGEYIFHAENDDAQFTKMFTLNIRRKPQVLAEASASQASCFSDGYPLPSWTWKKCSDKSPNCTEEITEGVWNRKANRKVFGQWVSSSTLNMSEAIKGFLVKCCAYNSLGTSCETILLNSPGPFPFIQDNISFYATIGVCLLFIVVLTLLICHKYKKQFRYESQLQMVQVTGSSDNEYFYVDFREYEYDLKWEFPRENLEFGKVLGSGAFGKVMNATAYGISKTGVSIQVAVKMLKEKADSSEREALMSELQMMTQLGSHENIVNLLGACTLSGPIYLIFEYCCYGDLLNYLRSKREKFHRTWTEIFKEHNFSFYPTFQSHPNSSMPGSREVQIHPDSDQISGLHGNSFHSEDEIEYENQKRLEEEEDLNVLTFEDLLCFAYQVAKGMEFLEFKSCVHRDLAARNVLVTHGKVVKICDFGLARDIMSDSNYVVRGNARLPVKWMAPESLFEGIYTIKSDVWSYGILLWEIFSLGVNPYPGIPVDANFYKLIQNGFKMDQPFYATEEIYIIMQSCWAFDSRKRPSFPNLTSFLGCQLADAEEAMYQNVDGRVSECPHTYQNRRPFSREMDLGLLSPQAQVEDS

[3] = target: T3, panel of 468 kinases (Homo sapiens, UniProt P36888, R834Q); conditions: FLT3(R834Q); 1 μM; read-out: % control
T3 construct: purchased KINOMEscan (ScanMAX) service
T3 sequence (P36888 27-993 R834Q): T2 sequence (P36888 27-993 K663Q) with Q637K, R808Q

[4] = target: T4, panel of 468 kinases (Homo sapiens, UniProt P41743); conditions: PRKCI; 1 μM; read-out: % control
T4 construct: purchased KINOMEscan (ScanMAX) service
T4 sequence (P41743 1-596): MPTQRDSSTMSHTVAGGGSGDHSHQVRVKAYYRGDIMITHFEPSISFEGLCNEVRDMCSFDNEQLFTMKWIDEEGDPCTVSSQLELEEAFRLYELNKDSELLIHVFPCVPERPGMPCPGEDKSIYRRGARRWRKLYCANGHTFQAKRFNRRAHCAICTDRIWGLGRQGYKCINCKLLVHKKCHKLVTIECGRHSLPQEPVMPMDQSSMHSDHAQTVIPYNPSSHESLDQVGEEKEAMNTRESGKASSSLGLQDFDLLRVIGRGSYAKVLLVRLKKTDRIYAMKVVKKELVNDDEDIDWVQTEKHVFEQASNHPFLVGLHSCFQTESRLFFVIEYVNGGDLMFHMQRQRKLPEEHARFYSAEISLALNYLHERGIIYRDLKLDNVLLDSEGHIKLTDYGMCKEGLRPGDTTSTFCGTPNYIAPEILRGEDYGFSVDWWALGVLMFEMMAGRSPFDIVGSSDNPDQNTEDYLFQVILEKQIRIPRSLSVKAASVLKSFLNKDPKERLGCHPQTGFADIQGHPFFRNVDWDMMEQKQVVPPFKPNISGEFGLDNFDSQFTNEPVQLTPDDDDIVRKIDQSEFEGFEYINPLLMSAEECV

T1 sequence (P07949 29-1114): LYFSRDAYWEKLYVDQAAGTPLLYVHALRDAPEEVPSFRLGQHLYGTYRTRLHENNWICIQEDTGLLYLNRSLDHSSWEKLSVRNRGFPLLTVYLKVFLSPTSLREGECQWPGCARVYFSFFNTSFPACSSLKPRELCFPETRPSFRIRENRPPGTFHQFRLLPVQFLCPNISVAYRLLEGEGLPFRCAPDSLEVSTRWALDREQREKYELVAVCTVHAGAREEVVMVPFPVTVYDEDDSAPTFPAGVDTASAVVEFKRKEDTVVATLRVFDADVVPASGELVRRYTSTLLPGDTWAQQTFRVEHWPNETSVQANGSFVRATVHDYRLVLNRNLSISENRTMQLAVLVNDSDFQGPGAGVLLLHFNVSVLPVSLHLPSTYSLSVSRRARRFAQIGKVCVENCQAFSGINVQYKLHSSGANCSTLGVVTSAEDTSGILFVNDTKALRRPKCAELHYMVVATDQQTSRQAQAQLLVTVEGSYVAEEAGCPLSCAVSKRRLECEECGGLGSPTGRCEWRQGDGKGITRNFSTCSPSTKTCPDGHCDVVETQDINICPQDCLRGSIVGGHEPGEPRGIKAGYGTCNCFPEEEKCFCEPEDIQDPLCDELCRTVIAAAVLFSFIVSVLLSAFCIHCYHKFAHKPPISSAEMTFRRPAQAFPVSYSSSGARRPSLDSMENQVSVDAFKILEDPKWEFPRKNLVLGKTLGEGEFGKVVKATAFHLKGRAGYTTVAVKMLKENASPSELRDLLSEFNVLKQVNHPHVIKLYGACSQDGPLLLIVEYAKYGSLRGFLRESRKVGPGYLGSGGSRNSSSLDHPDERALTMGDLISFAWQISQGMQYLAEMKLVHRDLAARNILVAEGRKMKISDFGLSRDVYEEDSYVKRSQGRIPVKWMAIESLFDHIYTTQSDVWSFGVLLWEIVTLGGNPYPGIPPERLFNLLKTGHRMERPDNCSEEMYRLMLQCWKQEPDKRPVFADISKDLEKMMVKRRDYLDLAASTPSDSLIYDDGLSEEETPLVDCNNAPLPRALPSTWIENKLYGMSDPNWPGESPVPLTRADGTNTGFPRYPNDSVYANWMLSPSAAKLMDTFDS

| SMILES | remaining binding at 1 µM [1] [%] | remaining binding at 1 µM [2] [%] | remaining binding at 1 µM [3] [%] | remaining binding at 1 µM [4] [%] |
| --- | --- | --- | --- | --- |
| CNc1nc(Nc2ccc(S(=O)(=O)N3CCC(N4CCOCC4)CC3)cc2OC)nc2[nH]cc(Cl)c12 [Compound 12, 5-chloro-N2-(2-methoxy-4-((4-morpholinopiperidin-1-yl)sulfonyl)phenyl)-N4-methyl-7H-pyrrolo[2,3-d]pyrimidine-2,4-diamine] | 100 | 100 | 92 | 54 |
| CNc1nc(Nc2ccc(C(=O)N3CCC(N4CCOCC4)CC3)c3c2OCO3)nc2[nH]cc(Cl)c12 [Compound 75, (7-((5-chloro-4-(methylamino)-7H-pyrrolo[2,3-d]pyrimidin-2-yl)amino)benzo[d][1,3]dioxol-4-yl)(4-morpholinopiperidin-1-yl)methanone] | 100 | 72 | 73 | 65 |
| CNc1nc(Nc2ccc(P3(=O)CCN(C4CCOCC4)CC3)cc2OC)nc2[nH]cc(Cl)c12 [Compound 77, 4-(4-((5-chloro-4-(methylamino)-7H-pyrrolo[2,3-d]pyrimidin-2-yl)amino)-3-methoxyphenyl)-1-(tetrahydro-2H-pyran-4-yl)-1,4-azaphosphinane 4-oxide] | 100 | 99 | 82 | 55 |
